Data on 26 molecules can be found in US20240101570A1 (AMGEN INC., priority 2020, published 2024).

Structures are written as SMILES.

In assay [1] the test system is HCT116 MTAP null cells. The experiment in a line: HCT116 MTAP null cell proliferation / viability (CellTiter-Glo, 6 days). Format: cell-based. To be noted: HCT116-MTAP null, 144 h, HCT116 MTAP null cells, 6 days, CellTiter-Glo; read-out: HCT-116 MTAP null IC50. Summed up: (§1)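 CellTiter-Glo luminescence, 6-day exposure, RPMI 1640 + 10% FBS. Dosing: 1:3 series (8-9 pts, top 1 or 10 μM) or 1:2 series (22 pts, top 10 or 50 μM), DMSO control. IC50 = 50% of control via curve fit.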

Assay [2] concerns HCT116 WT cells. Description: HCT116 WT cell proliferation / viability (CellTiter-Glo, 6 days). To be noted: Homo sapiens, HCT-116, 144 h, HCT116 WT cells, 6 days, CellTiter-Glo; read-out: HCT-116 WT IC50. Format: cell-based. In outline: as §1
Background: In ATP-based viability assays light output follows the ATP content of the culture.

As a reminder, the IC50 is the point on the concentration scale where inhibition reaches its midpoint. Take `COCC(C)(C)N(Cc1ccc(Br)nn1)C(=O)c1cc2c3c(c(N)nc2cn1)COC3` [Example 645, 4-amino-N-((6-bromo-3-pyridazinyl)methyl)-N-(1-methoxy-2-methyl-2-propanyl)-1,3-dihydrofuro[3,4-c][1,7]naphthyridine-8-carboxamide]: the 50% inhibitory concentration (IC50) was at least 50 µM in assay [1] and above 50 µM in assay [2].

With `C[C@H](c1ncccc1F)N(Cc1ccc(Br)nn1)C(=O)c1cc2c3c(c(N)nc2cc1F)COC3` [Example 437, 4-amino-N-((6-bromo-3-pyridazinyl)methyl)-7-fluoro-N-((1R)-1-(3-fluoro-2-pyridinyl)ethyl)-1,3-dihydrofuro[3,4-c]quinoline-8-carboxamide], the IC50 came out at 0.031 µM in assay [1] and 0.353 µM in assay [2].

Turning to `CN(Cc1ccc(C2CC2)cn1)C(=O)c1cc2c3c(c(N)nc2cn1)COC3` [Example 349, 4-amino-N-((5-cyclopropyl-2-pyridinyl)methyl)-N-methyl-1,3-dihydrofuro[3,4-c][1,7]naphthyridine-8-carboxamide], the results for the IC50 in assay [1] and in assay [2] were 0.325 µM and 9.19 µM, respectively.

For `C[C@H](c1ncccn1)N(Cc1ccc(Cl)cn1)C(=O)c1cnc2nc(N)c3c(c2c1)CCC3` [Example 627, 6-amino-N-((5-chloro-2-pyridinyl)methyl)-N-((1R)-1-(2-pyrimidinyl)ethyl)-8,9-dihydro-7H-cyclopenta[c][1,8]naphthyridine-2-carboxamide], the 50% inhibitory concentration (IC50) in assay [1] was 0.045 µM; in assay [2], 0.583 µM.

`C[C@H](c1ccc(C(F)(F)F)cc1)N(C)C(=O)c1cc2c3c(c(N)nc2cc1F)COC3` (single isomer, unassigned) [Example 857]: the IC50 turned out to be 0.026 µM in assay [1] and 1.09 µM in assay [2].

As to `CO[C@@H]1COCC[C@H]1N(Cc1ccc(C(F)(F)F)cn1)C(=O)c1ccc2nc(N)c3c(c2c1)COC3` (racemic) [Example 459, 4-amino-N-((3R,4S)-3-methoxytetrahydro-2H-pyran-4-yl)-N-((5-(trifluoromethyl)-2-pyridinyl)methyl)-1,3-dihydrofuro[3,4-c]quinoline-8-carboxamide and 4-amino-N-((3S,4R)-3-methoxytetrahydro-2H-pyran-4-yl)-N-((5-(trifluoromethyl)-2-pyridinyl)methyl)-1,3-dihydrofuro[3,4-c]quinoline-8-carboxamide], the values for the IC50 in assay [1] and in assay [2] were 0.029 µM and 0.305 µM, respectively.

In the case of `Nc1nc2cnc(C(=O)N(Cc3ccc(C(F)(F)F)cn3)CC3CC3)cc2c2c1COC2` [Example 652, 4-amino-N-(cyclopropylmethyl)-N-((5-(trifluoromethyl)pyridin-2-yl)methyl)-1,3-dihydrofuro[3,4-c][1,7]naphthyridine-8-carboxamide], the figures for the IC50 in assay [1] and in assay [2] were 0.05 µM and 1.39 µM, respectively.

`CC1OCc2c1c(N)nc1ccc(C(=O)N(Cc3ccc(C(F)(F)F)cn3)CC3(C#N)CC3)cc21` (stereo not shown) [Example 917, 4-amino-N-((1-cyanocyclopropyl)methyl)-3-methyl-N-((5-(trifluoromethyl)pyridin-2-yl)methyl)-1,3-dihydrofuro[3,4-c]quinoline-8-carboxamide]: the half-maximal inhibitory concentration (IC50) is 0.017 µM in assay [1] and 1.56 µM in assay [2].

For the molecule `CC(C)N(Cc1ccc(C(F)(F)F)nn1)C(=O)c1cc2c3c(c(N)nc2cn1)COC3` [Example 366, 4-amino-N-(2-propanyl)-N-((6-(trifluoromethyl)-3-pyridazinyl)methyl)-1,3-dihydrofuro[3,4-c][1,7]naphthyridine-8-carboxamide], the IC50 was 0.175 µM in assay [1] and 12.5 µM in assay [2].

Consider `Cn1ncc2c(N)nc3cc(F)c(C(=O)N(Cc4ccc(C(F)(F)F)cn4)C4CC4)cc3c21` [Example 803, 4-amino-N-cyclopropyl-7-fluoro-1-methyl-N-((5-(trifluoromethyl)-2-pyridinyl)methyl)-1H-pyrazolo[4,3-c]quinoline-8-carboxamide], for which the IC50 in assay [1] stood at 0.012 µM; in assay [2], 0.384 µM.

As for `Nc1nc2cnc(C(=O)N(Cc3ccc(C(F)(F)F)nn3)C3CC3)cc2c2c1COC2` [Example 382, 4-amino-N-cyclopropyl-N-((6-(trifluoromethyl)-3-pyridazinyl)methyl)-1,3-dihydrofuro[3,4-c][1,7]naphthyridine-8-carboxamide], the IC50 in assay [1] came out at 1.16 µM; in assay [2], 22.8 µM.

For `C[C@H](c1ncccn1)N(Cc1ccc(Cl)cn1)C(=O)c1ccc2nc(N)c3c(c2c1)CCC3` [Example 622, 4-amino-N-((5-chloro-2-pyridinyl)methyl)-N-((1R)-1-(2-pyrimidinyl)ethyl)-2,3-dihydro-1H-cyclopenta[c]quinoline-8-carboxamide], the IC50 worked out at 0.011 µM in assay [1] and 0.156 µM in assay [2].

Consider `C[C@H]1OCc2c1c(N)nc1ccc(C(=O)N(Cc3ccc(C4CC4)cn3)C3CC3)cc21` [Example 368, (3R)-4-amino-N-cyclopropyl-N-((5-cyclopropyl-2-pyridinyl)methyl)-3-methyl-1,3-dihydrofuro[3,4-c]quinoline-8-carboxamide], for which the IC50 in assay [1] is 0.065 µM; in assay [2] it was 3.26 µM.

Turning to `CC(C)N(Cc1ccc(C(F)(F)F)cn1)C(=O)c1ccc2nc(N)c3ncncc3c2c1` [Example 755, 5-amino-N-(2-propanyl)-N-((5-(trifluoromethyl)-2-pyridinyl)methyl)pyrimido[4,5-c]quinoline-9-carboxamide], the IC50 stood at 0.892 µM in assay [1] and 6.42 µM in assay [2].

For the molecule `C[C@H]1OCc2c1c(N)nc1ccc(C(=O)N(Cc3ccc(C(F)(F)F)cn3)CC(C)(C)C)cc21` [Example 338, (3R)-4-amino-N-(2,2-dimethylpropyl)-3-methyl-N-((5-(trifluoromethyl)-2-pyridinyl)methyl)-1,3-dihydrofuro[3,4-c]quinoline-8-carboxamide], the IC50 is 0.406 µM in assay [1] and 5.83 µM in assay [2].

As to `CCN(C(=O)c1cc2c(cc1F)nc(N)c1cnn(C)c12)[C@H](C)c1ccc(F)cn1` (single isomer, unassigned) [Example 875], the half-inhibitory concentration (IC50) in assay [1] is 0.025 µM; in assay [2], 1.42 µM.

As for `C[C@H](c1ccc(C(F)(F)F)nn1)N(C(=O)c1cc2c(cc1F)nc(N)c1cnn(C)c12)C1CC1` (single isomer, unassigned) [Example 878], the IC50 in assay [1] stood at 0.01 µM; in assay [2] it was 0.709 µM.

`Cc1noc2c1c(N)nc1ccc(C(=O)N(Cc3ccc(C(F)(F)F)cn3)C(C)c3ncccn3)cc12` (racemic) [Example 619, 4-amino-3-methyl-N-((1R)-1-(2-pyrimidinyl)ethyl)-N-((5-(trifluoromethyl)-2-pyridinyl)methyl)[1,2]oxazolo[4,5-c]quinoline-8-carboxamide and 4-amino-3-methyl-N-((1S)-1-(2-pyrimidinyl)ethyl)-N-((5-(trifluoromethyl)-2-pyridinyl)methyl)[1,2]oxazolo[4,5-c]quinoline-8-carboxamide]: the IC50 in assay [1] came out at 0.061 µM; in assay [2], 1.06 µM.

Consider `COC[C@@H](C)N(Cc1ccc(Br)nn1)C(=O)c1ccc2nc(N)c3c(c2c1)COC3` [Example 463, 4-amino-N-((6-bromo-3-pyridazinyl)methyl)-N-((2R)-1-methoxy-2-propanyl)-1,3-dihydrofuro[3,4-c]quinoline-8-carboxamide], for which the IC50 came out at 0.014 µM in assay [1] and 0.44 µM in assay [2].

In the case of `N#Cc1ccc(CN(C(=O)c2cc3c4c(c(N)nc3cn2)COC4)C2CC2)nc1` [Example 347, 4-amino-N-((5-cyano-2-pyridinyl)methyl)-N-cyclopropyl-1,3-dihydrofuro[3,4-c][1,7]naphthyridine-8-carboxamide], the values for the half-inhibitory concentration (IC50) in assay [1] and in assay [2] were 0.712 µM and 43.8 µM, respectively.

As to `CC1OCc2c1c(N)nc1ccc(C(=O)N(Cc3ccc(C(F)(F)F)cn3)[C@H](C)c3ncccn3)cc21` (stereo partly drawn) [Example 911, 4-amino-3-methyl-N-((R)-1-(pyrimidin-2-yl)ethyl)-N-((5-(trifluoromethyl)pyridin-2-yl)methyl)-1,3-dihydrofuro[3,4-c]quinoline-8-carboxamide], the IC50 in assay [1] amounted to 0.021 µM; in assay [2] it was 0.173 µM.

Turning to `N#Cc1ccc(CN(C(=O)c2cc3c4c(c(N)nc3cc2Cl)COC4)C2CC2)nc1` [Example 461, 4-amino-7-chloro-N-((5-cyano-2-pyridinyl)methyl)-N-cyclopropyl-1,3-dihydrofuro[3,4-c]quinoline-8-carboxamide], the IC50 in assay [1] came to 0.069 µM; in assay [2], 4.5 µM.

Take `CC[C@H](c1ccc(C(F)(F)F)cn1)N(CC)C(=O)c1cc2c3c(c(N)nc2cn1)COC3` [Example 761, 4-amino-N-ethyl-N-((1R)-1-(5-(trifluoromethyl)-2-pyridinyl)propyl)-1,3-dihydrofuro[3,4-c][1,7]naphthyridine-8-carboxamide]: the half-maximal inhibitory concentration (IC50) turned out to be 0.305 µM in assay [1] and 13.6 µM in assay [2].

For `C[C@@H](c1ccc(C(F)(F)F)nn1)N(C(=O)c1cc2c(cc1F)nc(N)c1cnn(C)c12)C1CC1` (single isomer, unassigned) [Example 877], the IC50 turned out to be 0.756 µM in assay [1] and 44.1 µM in assay [2].

As to `N#CC[C@H](C1CC1)N(Cc1ccc(C#N)cn1)C(=O)c1ccc2nc(N)c3c(c2c1)COC3` (single isomer, unassigned) [Example 581], the half-maximal inhibitory concentration (IC50) in assay [1] turned out to be 0.809 µM; in assay [2], 10.2 µM.

Turning to `COC[C@@H](C)N(Cc1ccc(C(F)(F)F)cn1)C(=O)c1cc2c3c(c(N)nc2cn1)COC3` [Example 728, 4-amino-N-((2R)-1-methoxy-2-propanyl)-N-((5-(trifluoromethyl)-2-pyridinyl)methyl)-1,3-dihydrofuro[3,4-c][1,7]naphthyridine-8-carboxamide], the figures for the 50% inhibitory concentration (IC50) in assay [1] and in assay [2] were 0.047 µM and 0.663 µM, respectively.
